Laboratory results as given in article PMC7569237 (Translational Oncology, 2020).

Assay: Plasma and tumor levels in MIA PaCa-2 tumor-bearing nude mice
Type: in vivo
Settings: MIA PaCa-2-bearing mice, CPT-11 10 mg/kg iv; SN38 = released from CPT-11

Row | SMILES | Time within which concentrations rapidly decreased in plasma and tumor [h]
1 | CCc1c2c(nc3ccc(OC(=O)N4CCC(N5CCCCC5)CC4)cc13)-c1cc3c(c(=O)n1C2)COC(=O)[C@]3(O)CC [CPT-11, 7-ethyl-10-[4-(1-piperidino)-1-piperidino]carbonyloxycamptothecin] | ≤ 48
2 | CCc1c2c(nc3ccc(O)cc13)-c1cc3c(c(=O)n1C2)COC(=O)[C@]3(O)CC [SN38, 7-ethyl-10-hydroxycamptothecin] | ≤ 48
